According to patent US20260355330A1, “CELL PENETRATING PEPTIDES AND USES THEREOF” (VECTIOPEP OÜ, priority 2022, published 2026):

Columns and labels:
CHO-K1 cells [1] = experiment: Comparison of reporter levels in cells post-transfection of pDNA or mRNA delivered by CPPs; format: cell-based; conditions: in words; mRNA cargo; FIG. 2
Protocol: FIG. 2: Comparison of reporter levels in cells post-transfection of pDNA or mRNA delivered by CPPs (P14, NF55 and NF71; relative light units normalised to total protein in the cell lysate (RLU/mg)). Naked mRNA and untreated cells (UT) were used as controls.
Adherent CHO-K1 cells were grown in Dulbecco's Modified Eagle's Medium (DMEM), which were supplemented with 0.1 mM non-essential amino acids, 1.0 mM sodium pyruvate, 100 U/ml penicillin, and […]. For complete media, 10% (final) fetal bovine serum (FBS) was added. Cells were maintained in a humidified incubator at 37 °C, 5% CO2. Cell viability and confluence was assessed daily and the cell density was reduced regularly. For cell counting, we used the CytoSMART cell counter accompanied by 0.4% trypan blue staining prior measurement. The multi-well plates with cell cultures used for experiments were incubated in a humidified incubator at 37 °C, 5% CO2.
For in vitro experiments 0.1 μg of nucleic acid (plasmid DNA (pDNA) or mRNA) was used per 96-well plate well. For CPP/NA complex formation, the diluted NA was mixed with CPP in water. Complexes were formed based on the theoretical charge ratio (CR) of positive charges from the peptide in excess to the negative charges from nucleic acid backbone, at charge ratio 3:1 with peptide in excess. […]
For reporter luminescence (expressed from firefly luciferase encoding mRNA or plasmid pDNA) assessment in adherent cell culture, 10,000 cells per 96-well plate well were seeded in 100 μl of media one day prior to transfection. […]
24 hours post-transfection, the media was aspirated, cells were washed with 1×PBS, and 30 μl of lysis buffer (0.1% Triton X100 in 1×PBS) was added. […] From the lysate, 20 μl was transferred to a black frame white well 96-well plate for luminescence measurement after addition of substrate luciferin (PerkinElmer) in buffer. The luminescence signal was detected with GloMax® 96 microplate luminometer equipped with GloMax® 1.9.2 software (Promega). […]

CHO-K1 cells [2] = experiment: Delivery of reporter mRNA with CPPs in cell culture (luciferase luminescence 24 h post-transfection); format: cell-based
In short: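 CHO-K1 cells (10,000/well) transfected in 10% FBS DMEM with 0.1 μg firefly luciferase mRNA complexed with CPP at 3:1 charge ratio (peptide excess). Luminescence read in lysates 24 h later, normalised to BCA total protein (RLU/mg).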

## CCCCCCCCCCCCCCCCCC(=O)N[C@@H](C)C(=O)NCC(=O)N[C@@H](Cc1ccc(O)cc1)C(=O)N[C@@H](CC(C)C)C(=O)N[C@@H](CC(C)C)C(=O)NCC(=O)NCCC[C@H](N)C(=O)N[C@H](C(=O)N[C@@H](CC(N)=O)C(=O)N[C@@H](CC(C)C)C(=O)N[C@@H](CCCCN)C(=O)N[C@@H](C)C(=O)N[C@@H](CC(C)C)C(=O)N[C@@H](C)C(=O)N[C@@H](C)C(=O)N[C@@H](CC(C)C)C(=O)N[C@@H](C)C(=O)N[C@@H](CCCCN)C(=O)N[C@@H](C)C(=O)N[C@H](C(=O)N[C@@H](CC(C)C)C(N)=O)[C@@H](C)CC)[C@@H](C)CC [NF55]
CHO-K1 cells [1]
  Efficiency of mRNA transfection (parallel pDNA/mRNA comparison): very efficient for mRNA transfection
CHO-K1 cells [2]; firefly luciferase mRNA, 0.1 μg per well, charge ratio 3:1, serum containing media, 24 h, RLU normalised to total protein in lysate
  Average RLU/mg (reporter levels post-transfection of mRNA): 1 270 000 000 RLU/mg
CHO-K1 cells [2]; in words, FIG. 1 / Table 2, cell culture
  Efficiency of mRNA transfection/delivery: the most efficient
